# Publication PMC8658948, “Exploring Amantadine Derivatives as Urease Inhibitors: Molecular Docking and Structure–Activity Relationship (SAR) Studies” (Molecules, 2021)
# Like-named read-outs stand apart in the source and are kept apart here.
# Tests used:
# [1] = DPPH free radical scavenging assay; conditions: 100 µg/mL, mean (SEM)
# Method: The 2,2-diphenyl-1-picrylhydrazyl (DPPH) test was used to assess radical scavenging activity. By using ascorbic acid as a reference inhibitor, 100 µL of DPPH ([…]), 20 µL of escalating concentrations of test compounds, and the volume adjusted to 200 µL in each well with methanol were incubated for 30 min at room temperature. At 517 nm, an OPTI Max Tunable microplate reader was used to perform assay measurements. The % inhibition caused by the investigated inhibitors was calculated after response rates were compared.
# Jack bean urease [2] = biological target: T1, Jack bean urease (Canavalia ensiformis, UniProt P07374); test: biochemical
# T1 sequence (P07374 whole entry, looked up): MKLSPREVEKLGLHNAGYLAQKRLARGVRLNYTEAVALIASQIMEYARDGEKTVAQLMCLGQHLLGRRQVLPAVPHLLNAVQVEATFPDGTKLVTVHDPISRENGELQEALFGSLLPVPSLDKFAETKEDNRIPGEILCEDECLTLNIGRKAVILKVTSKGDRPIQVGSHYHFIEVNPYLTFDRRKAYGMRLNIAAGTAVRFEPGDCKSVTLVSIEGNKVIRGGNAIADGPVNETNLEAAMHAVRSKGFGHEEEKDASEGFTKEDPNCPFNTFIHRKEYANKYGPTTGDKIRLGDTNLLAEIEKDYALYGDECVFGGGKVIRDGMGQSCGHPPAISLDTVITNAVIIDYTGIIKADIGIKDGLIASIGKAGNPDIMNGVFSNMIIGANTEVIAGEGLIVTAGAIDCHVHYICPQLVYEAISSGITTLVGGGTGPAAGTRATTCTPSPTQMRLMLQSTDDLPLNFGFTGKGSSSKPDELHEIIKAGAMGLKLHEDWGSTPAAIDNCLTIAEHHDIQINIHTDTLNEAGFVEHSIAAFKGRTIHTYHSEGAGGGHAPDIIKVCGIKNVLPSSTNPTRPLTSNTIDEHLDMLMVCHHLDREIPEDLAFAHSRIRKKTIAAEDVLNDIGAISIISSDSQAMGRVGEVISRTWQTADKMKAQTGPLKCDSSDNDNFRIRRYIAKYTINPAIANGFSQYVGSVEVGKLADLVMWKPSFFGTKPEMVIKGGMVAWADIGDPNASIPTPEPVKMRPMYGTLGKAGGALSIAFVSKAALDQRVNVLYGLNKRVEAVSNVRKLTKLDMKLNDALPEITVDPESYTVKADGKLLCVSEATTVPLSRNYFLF
# Method: The amount of NH3 produced with indophenol’s method reported in the literature was used to estimate Jack bean urease activity. In a 96-well plate, reaction mixtures containing 20 µL of Jack bean urease at 5 U/mL and 20 µL of compounds in 50 µL of potassium phosphate buffer (100 mM urea, 10 mM K2HPO4, 1 mM EDTA, and 10 mM LiCl, pH 8.2) were incubated for 30 min at 37 °C. Briefly, 50 μL each of phenol reagents (1%, w/v phenol and 0.005%, w/v sodium nitroprusside) and 50 μL of alkali reagent (0.5%, w/v NaOH and 0.1% NaOCl were added to each well. The absorbance at 625 nm was evaluated after 10 min by utilizing a microplate reader (OPTIMax, Tunable). Each of the reactions was accomplished in triplicate. The urease inhibition activities were calculated using the following formula:(1) Urease inhibition activity %=ODcontrol−ODsample×100/ODcontrol where ODcontrol and ODsample represent the optical densities in the absence and presence of sample, respectively, by using thiourea as standard.
# Jack bean urease [3] = biological target: T1, Jack bean urease; test: Kinetic analysis of urease inhibition (Lineweaver-Burk plot); format: biochemical; conditions: for Vmax: substrate urea
# Excerpt: The kinetic studies of the enzyme by the Lineweaver–Burk plot of 1/V versus 1/[S] in the presence of different compound concentrations produced a series of straight lines (Figure 3A). […] Thus, compounds 3f inhibit the urease non-competitively in order to form an enzyme inhibitor complex.
# Based on IC50 values, compound 3j was identified as the most powerful. Changing the concentration of urea at different concentrations of 3j (0.00, 0.0042, 0.0085, and 0.017 M) was used to study kinetics. For urease kinetics, the urea concentration was quickly adjusted from 100, 50, 25, 12.5, 6.25, and 3.12 mM. The highest preliminary velocities were determined from initial linear portion of absorbance up to 10 min after the addition of enzyme at per minute’s interval. The inhibition type was determined by Lineweaver-Burk plot (1/V) versus 1/[S] mM^−1. The EI dissociation constant Ki was ascertained by secondary plot of 1/V against inhibitor concentration. […] The results were processed by using SoftMaxPro.
Structure (SMILES),Free radical % Scavenging [1],IC50 (Jack bean urease [2]),melting point,also measured
"O=C(NC(=S)NC12CC3CC(CC(C3)C1)C2)c1cc([N+](=O)[O-])cc([N+](=O)[O-])c1 [Compound 3i, N-(Adamantan-1-ylcarbamothioyl)-3,5-dinitrobenzamide]",5.91 (0.05) %,10 nM,210 to 211 °C,–
"CCCC(=O)NC(=S)NC12CC3CC(CC(C3)C1)C2 [Compound 3c, N-(Adamantan-1-ylcarbamothioyl)butyramide]",2.51 (0.00) %,30 nM,136 to 137 °C,–
"CCCCCCCC(=O)NC(=S)NC12CC3CC(CC(C3)C1)C2 [Compound 3j, N-(Adamantan-1-ylcarbamothioyl)octanamide]",9.96 (0.06) %,–,158 to 159 °C,Ki (Jack bean urease [3]): 7 nM; Inhibition Type (Jack bean urease [3]; Lineweaver-Burk plot): Non-Competitive; Vmax (Jack bean urease [3]; inhibitor dose 0.0042 µM): 0.001561 ΔA/Min; Vmax (Jack bean urease [3]; inhibitor dose 0.0085 µM): 0.001224 ΔA/Min; Vmax (Jack bean urease [3]; inhibitor dose 0.017 µM): 0.001208 ΔA/Min
"CCCCCCC(=O)NC(=S)NC12CC3CC(CC(C3)C1)C2 [Compound 3h, N-(Adamantan-1-ylcarbamothioyl)heptanamide]",15.36 (0.01) %,10 nM,149 to 151 °C,–
"O=C(NC(=S)NC12CC3CC(CC(C3)C1)C2)c1ccccc1Cl [Compound 3g, N-(Adamantan-1-ylcarbamothioyl)-2-chlorobenzamide]",1.12 (0.03) %,8.7 nM,185 to 187 °C,–
"O=C(NC(=S)NC12CC3CC(CC(C3)C1)C2)c1ccc(F)cc1 [Compound 3a, N-(Adamantan-1-ylcarbamothioyl)-4-fluorobenzamide]",4.18 (0.03) %,10 nM,180 to 182 °C,–
"O=C(NC(=S)NC12CC3CC(CC(C3)C1)C2)c1ccc(Cl)cc1Cl [Compound 3b, N-(Adamantan-1-ylcarbamothioyl)-2,4-dichlorobenzamide]",1.46 (0.02) %,10 nM,204 to 205 °C,–
"COc1ccc(C(=O)NC(=S)NC23CC4CC(CC(C4)C2)C3)cc1 [Compound 3d, N-(Adamantan-1-ylcarbamothioyl)-4-methoxybenzamide]",1.86 (0.01) %,20 nM,178 to 179 °C,–
"CCCCC(=O)NC(=S)NC12CC3CC(CC(C3)C1)C2 [Compound 3f, N-(Adamantan-1-ylcarbamothioyl)pentanamide]",4.26 (0.00) %,30 nM,141 to 142 °C,–
"NC(N)=S [Thiourea, reference compound]",–,–,–,"IC50 (Jack bean urease [2]; Jack bean urease, 30 min at 37 °C, pH 8.2, mean (SEM), read-out: Urease Activity IC50 ± SEM): 4740 nM"
"O=C(NC(=S)NC12CC3CC(CC(C3)C1)C2)c1ccc(Cl)cc1 [Compound 3e, N-(Adamantan-1-ylcarbamothioyl)-4-chlorobenzamide]",13.36 (0.01) %,30 nM,182 to 183 °C,–
"O=C1O[C@H]([C@@H](O)CO)C(O)=C1O [Vitamin C, ascorbic acid, reference compound]",95.15 (0.05) %,–,–,–
